Source: patent publication US20030003451A1, “Novel G protein-coupled receptors” (priority 2000, published 2003)

How the values were obtained:
nGPCR-51 = target: T1, nGPCR-51 (Homo sapiens, UniProt Q969V1); assay: Radioligand saturation binding assay, membranes of cells transiently expressing nGPCR-51
T1 construct: expressed in transfected cells
Procedure: HEK 293 or COS 7 cells transiently expressing nGPCR-51, or CHO K-I cells stable expressing nGPCR-51, were grown to sub-confluence (2 days post-transfection for transients), harvested from flasks in Dulbecco's PBS and pelleted by low speed centrifugation (2500 rpm) for 10 minutes. Cell pellets were homogenized in 10 ml tissue buffer (50 mM Hepes, 10 mM MgCl2, 2 mM EGTA, 1 μg/ml aprotinin, 1 μg/ml leupeptin hemisulfate, 1 μg/ml pepstatin A, pH 7.0) using a dounce, 10 strokes. Homogenate was centrifuged at 47,000× g for 15 minutes. Membrane pellet was resuspended in 1 ml tissue buffer using the dounce, 10 strokes. An aliquot of the membrane preparation was used to determine protein concentration. For measurement of saturation binding, 10 μg of cell membranes were incubated with various concentrations of [^125I] Peptide A (iodinated by routine procedures via the Tyr residue) in 300 μl binding assay buffer (tissue buffer plus 0.15 mM Bacitracin and 0.1% ovalbumin) for 90 minutes at room temperature in 96-well plates. Non-specific binding was defined by the inclusion of 1 μM Peptide A. After the binding incubation, plates were harvested onto GF/C filters presoaked in 0.3% non-fat dry milk. […] Filter plates were then counted in a Packard Topcount™ 96-well microplate scintillation counter. Data were analyzed using GraphPad Prism (San Diego, Calif.) and Kd and Bmax values were calculated.

Untransfected cells = assay: Radioligand binding assay, untransfected cells

T1 sequence (Q969V1 whole entry): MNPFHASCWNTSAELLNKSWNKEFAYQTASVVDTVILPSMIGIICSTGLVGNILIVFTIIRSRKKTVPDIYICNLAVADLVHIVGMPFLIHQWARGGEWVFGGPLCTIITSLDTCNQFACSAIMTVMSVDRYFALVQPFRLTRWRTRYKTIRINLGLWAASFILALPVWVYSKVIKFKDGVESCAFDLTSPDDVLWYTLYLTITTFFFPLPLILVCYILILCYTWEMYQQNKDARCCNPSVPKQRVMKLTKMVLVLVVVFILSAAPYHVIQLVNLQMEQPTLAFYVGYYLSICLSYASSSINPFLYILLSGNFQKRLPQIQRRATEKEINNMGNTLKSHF

Bmax (nGPCR-51; COS 7 cells transiently expressing nGPCR-51): 75 finol/mg
estimated Bmax (nGPCR-51; HEK 293 cells transiently expressing nGPCR-51): ~108 fmol/mg
SMILES: CSCC[C@@H]1NC(=O)[C@@H](NC(=O)[C@H](CCCNC(=N)N)NC(=O)[C@H](CC(C)C)NC(=O)[C@H](CCSC)NC(=O)[C@H](CC(=O)O)NC(=O)[C@H](Cc2ccccc2)NC(=O)[C@@H](N)CC(=O)O)CSSC[C@@H](C(=O)N[C@@H](Cc2c[nH]c3ccccc23)C(=O)N[C@@H](CCC(N)=O)C(=O)N[C@H](C(=O)O)C(C)C)NC(=O)[C@@H]2CCCN2C(=O)[C@H](CCCNC(=N)N)NC(=O)[C@H](Cc2ccc(O)c(I)c2)NC(=O)[C@H](C(C)C)NC(=O)[C@H](CCCNC(=N)N)NC(=O)CNC(=O)[C@H](CC(C)C)NC1=O [[^125I] Peptide A]
specific radioligand binding (Untransfected cells): no specific radioligand binding
